Key:
Sprague Dawley rats = type: in vivo; conditions: for Mortality in males: single oral dose (metformin salts 1500 mg/kg, Glycine 871.6 mg/kg), male Sprague Dawley rats; for Glucose reducing effect: single oral dose, Glycine 871.6 mg/Kg, metformin glycinate 1500 mg/kg; for Time of lowest level of glucose in blood after administration: both sexes; for Time of lowest level of glucose in blood after administration / Blood glucose level compared to females from the control group: single oral administration; for Mortality in females: single oral dose 1500 mg/kg, female Sprague Dawley rats
Protocol: . The following 14 days to administration, toxic effects were evaluated. […]; The cause to deaths was to a pronounced and fast drop in glycemia levels.

[1] = test system: Hepatic origin cells: CCL13; conditions: 250 mg/ml to 0.12 mg/ml, 24 and 72 hours exposure
[2] = test system: Kidney origin cells: CRL 1633; conditions: 250 mg/ml to 0.12 mg/ml, 24 and 72 hours exposure
[3] = test system: Primary cultures: hepatocytes; conditions: 250 mg/ml to 0.12 mg/ml, 24 and 72 hours exposure
Wistar rats [4] = conditions: both, rat, in vivo, 28 days
Description: (§1) Number of animals: 50 Wistar rats, young adults 3 months of age, of both sexes, were used. Five batches with ten animals each. Four experimental groups (10 animals in each group) and a control group.
(§2) After fasting, different doses (low, medium, high, and satellite and control groups) of the product were orally administered using an orogastric tube.
(§3) • Low: 0.1 g/kg • Medium: 0.5 g/kg • High: 1.0 g/kg • Satellite 1.0 g/kg • Control: Only the carrier (Bidistilled water)

Wistar rats [5] = assay: Subacute toxicity study at 28 days (OECD Guideline 407); conditions: 0.1, 0.5, 1.0 g/kg oral
Description: as §1, §2, §3

Row | Compound | Mortality in males (Sprague Dawley rats) | Glucose reducing effect (Sprague Dawley rats) | Time of lowest level of glucose in blood after administration (Sprague Dawley rats) | Blood glucose level compared to females from the control group (Sprague Dawley rats) | Mortality in females (Sprague Dawley rats) [%] | Lactate level in plasma (Sprague Dawley rats; day of oral administration, 1500 mg/kg) | Cytotoxicity [1] | Cytotoxicity [2] | Cytotoxicity [3] | Reversal of semi-pasty faeces during the course of the study (Wistar rats [4]) [th-11th] | Probable dose for the non-observable adverse effect (extrapolation) (Wistar rats [4]; po) [mg/kg] | Mortality during the 28-day study (Wistar rats [5])
1 | NCC(=O)O [Glycine, reference compound] | did not show mortality | did not show a marked glucose reducing affect |  |  |  |  |  |  |  |  |  | 
2 | CN(C)C(=N)NC(=N)N.Cl [Metformin hydrochloride, reference compound] | did not show mortality |  | three | statistically lower blood glucose level 3 and 6 hours after | 10 |  |  |  |  |  |  | 
3 | CN(C)C(=N)NC(=N)N [Metformin glycinate, N,N-dimethylimidodicarbonimidic diamide glycinate] | did not show mortality | more pronounced reduction of glucose levels | three | statistically significant lower blood glucose level 15 min, 30 min and also 3 and 6 hours after | 30 | increase of lactate level in plasma | not cytotoxic | not cytotoxic | not cytotoxic | 9 | 500 to 1000 | No mortality

Source: US8703183B2 (priority 2008, dated 2014)
